Assay results reported in ChEMBL document CHEMBL5233273, “An overview of hydroxypyranone and hydroxypyridinone as privileged scaffolds for novel drug discovery” (Eur J Med Chem, 2021).
Values after ≈ are worked out from the molar mass of the structure shown.

Assays:
Proteus mirabilis = experiment: Antibacterial activity against Proteus mirabilis ATCC 7002; type: functional
Mycobacterium avium = experiment: Antitubercular activity against Mycobacterium avium ATCC 15769; type: functional
Candida albicans = experiment: Antifungal activity against Candida albicans ATCC10231; type: functional
Pichia kudriavzevii = experiment: Antifungal activity against Candida krusei ATCC 6258; type: functional
Escherichia coli [1] = experiment: Antibacterial activity against Escherichia coli ATCC 35218; type: functional
Candida parapsilosis = experiment: Antifungal activity against […]; type: functional; settings: Lodderomyces parapsilosis
Pseudomonas aeruginosa = experiment: Antibacterial activity against Pseudomonas aeruginosa ATCC 10145; type: functional
Candida tropicalis = experiment: Antifungal activity against Candida tropicalis ATCC 13803; type: functional
Klebsiella pneumoniae = experiment: Antibacterial activity against Klebsiella pneumoniae RSKK 574; type: functional
Acinetobacter baumannii = experiment: Antibacterial activity against Acinetobacter baumannii i RSKK 02026; type: functional
[2] = tested on: Mycobacterium tuberculosis; experiment: Antitubercular activity against Mycobacterium tuberculosis H37Rv ATCC 27294; type: functional
[3] = target: Amine oxidase [flavin-containing] B (Homo sapiens, UniProt P27338); experiment: Inhibition of human MAO-B
Chain of Amine oxidase [flavin-containing] B (P27338 whole entry): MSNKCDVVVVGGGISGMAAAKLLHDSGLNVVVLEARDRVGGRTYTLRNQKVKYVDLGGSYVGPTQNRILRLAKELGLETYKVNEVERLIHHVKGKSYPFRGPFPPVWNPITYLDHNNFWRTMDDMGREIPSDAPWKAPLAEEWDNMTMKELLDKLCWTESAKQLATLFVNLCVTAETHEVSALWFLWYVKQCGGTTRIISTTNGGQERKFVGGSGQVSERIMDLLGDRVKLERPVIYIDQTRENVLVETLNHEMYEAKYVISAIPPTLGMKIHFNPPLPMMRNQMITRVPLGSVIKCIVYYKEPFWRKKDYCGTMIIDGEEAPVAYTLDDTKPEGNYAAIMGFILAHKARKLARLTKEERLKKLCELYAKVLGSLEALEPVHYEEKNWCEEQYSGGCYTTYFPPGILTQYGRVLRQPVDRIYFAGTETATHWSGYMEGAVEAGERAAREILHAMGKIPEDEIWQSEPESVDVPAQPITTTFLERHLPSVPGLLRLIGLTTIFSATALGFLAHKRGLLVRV

Saccharomyces cerevisiae = experiment: Antifungal activity against Saccharomyces cerevisiae; type: functional
Aspergillus niger = experiment: Antifungal activity against Aspergillus niger; type: functional
Staphylococcus aureus [4] = experiment: Antibacterial activity against Staphylococcus aureus; type: functional
Escherichia coli [5] = experiment: Antibacterial activity against Escherichia coli; type: functional
Enterococcus faecalis [6] = experiment: Antibacterial activity against Enterococcus faecalis; type: functional
[7] = Antiinflammatory activity in macrophages assessed as reduction in LPS-induced NO production; type: functional, cell-based; settings: Macrophage
Staphylococcus aureus [8] = experiment: Antibacterial activity against Staphylococcus aureus assessed as zone of inhibition; type: functional
Bacillus subtilis [9] = experiment: Antibacterial activity against Bacillus subtilis assessed as zone of inhibition; type: functional
Bacillus subtilis [10] = experiment: Antibacterial activity against Bacillus subtilis ATCC 6633; type: functional
Enterococcus faecalis [11] = experiment: Antibacterial activity against Enterococcus faecalis ATCC 29212; type: functional
Staphylococcus aureus [12] = experiment: Antibacterial activity against Staphylococcus aureus ATCC 25923; type: functional
Tyrosinase = target: T1, Tyrosinase (Agaricus bisporus, UniProt O42713); experiment: Inhibition of mushroom tyrosinase
T1 sequence (O42713 whole entry): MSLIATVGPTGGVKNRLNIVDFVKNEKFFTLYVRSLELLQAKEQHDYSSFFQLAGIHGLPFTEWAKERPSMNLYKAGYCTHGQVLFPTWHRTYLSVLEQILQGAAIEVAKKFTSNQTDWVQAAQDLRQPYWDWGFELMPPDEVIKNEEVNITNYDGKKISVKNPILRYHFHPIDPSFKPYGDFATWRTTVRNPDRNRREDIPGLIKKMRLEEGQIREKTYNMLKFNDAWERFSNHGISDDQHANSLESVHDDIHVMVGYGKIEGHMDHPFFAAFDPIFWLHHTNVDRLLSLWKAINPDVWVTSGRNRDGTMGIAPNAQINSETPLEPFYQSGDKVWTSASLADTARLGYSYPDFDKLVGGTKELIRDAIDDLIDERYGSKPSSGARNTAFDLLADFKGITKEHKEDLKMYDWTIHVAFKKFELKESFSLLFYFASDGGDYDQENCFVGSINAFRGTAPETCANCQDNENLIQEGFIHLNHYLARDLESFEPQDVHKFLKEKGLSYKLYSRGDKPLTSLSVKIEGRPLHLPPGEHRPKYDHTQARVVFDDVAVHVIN

[13] = Inhibition of TBHP induced lipid peroxidation in human HaCaT cells; type: functional
DU-145 = experiment: Cytotoxicity against human DU-145 cells; type: functional, cell-based
A549 = experiment: Cytotoxicity against human A549 cells; type: functional, cell-based
MCF7 = experiment: Cytotoxicity against human MCF7 cells; type: functional, cell-based
HeLa = experiment: Cytotoxicity against human HeLa cells; type: functional, cell-based

O=c1cc(CCl)oc(CN2CCN(c3ccccc3)CC2)c1O
MIC (Proteus mirabilis): 8 µg/mL (≈ 23.9 µM)
MIC (Mycobacterium avium): 4 µg/mL (≈ 11.9 µM)
MIC (Candida albicans): 8 µg/mL (≈ 23.9 µM)
MIC (Pichia kudriavzevii): 8 µg/mL (≈ 23.9 µM)
MIC (Escherichia coli [1]): 8 µg/mL (≈ 23.9 µM)
MIC (Candida parapsilosis): 8 µg/mL (≈ 23.9 µM)
MIC (Pseudomonas aeruginosa): 8 µg/mL (≈ 23.9 µM)
MIC (Candida tropicalis): 8 µg/mL (≈ 23.9 µM)
MIC (Klebsiella pneumoniae): 8 µg/mL (≈ 23.9 µM)
MIC (Acinetobacter baumannii): 8 µg/mL (≈ 23.9 µM)
MIC [2]: 4 µg/mL (≈ 11.9 µM)

CCc1c(O)c(=O)cc(C)n1CCCn1cc(COc2ccc3ccc(=O)oc3c2)nn1
IC50 [3]: 680 nM

CO[C@@H]1O[C@H](COCc2cc(=O)c(O)co2)[C@@H](C)[C@H](OCc2cc(=O)c(O)co2)[C@H]1N
MIC (Saccharomyces cerevisiae): 1040 µg/mL (≈ 2370 µM)
MIC (Aspergillus niger): 1040 µg/mL (≈ 2370 µM)
MIC (Staphylococcus aureus [4]): 1040 µg/mL (≈ 2370 µM)
MIC (Escherichia coli [5]): 1040 µg/mL (≈ 2370 µM)

Cc1cc(=O)c(O)c(C(=O)Nc2ccc3c(C)cc(=O)oc3c2)o1
MIC (Pichia kudriavzevii): 4 µg/mL (≈ 12.2 µM)
MIC (Enterococcus faecalis [6]): 8 µg/mL (≈ 24.4 µM)
MIC (Staphylococcus aureus [4]): 8 µg/mL (≈ 24.4 µM)
MIC (Escherichia coli [5]): 8 µg/mL (≈ 24.4 µM)

O=c1cc(CSc2ccc(Cl)cc2)occ1O
IC50 [7]: 23.9 µM

N#CC(C(=O)c1c[nH]c2ccccc12)C(c1ccc(Cl)cc1)c1oc(CO)cc(=O)c1O (centres undefined)
inhibition zone (IZ) (Staphylococcus aureus [8]): 22 mm
inhibition zone (IZ) (Bacillus subtilis [9]): 19.5 mm

O=c1cc(CCl)oc(CN2CCN(Cc3ccc(C(F)(F)F)cc3)CC2)c1O
MIC (Proteus mirabilis): 8 µg/mL (≈ 19.2 µM)
MIC (Mycobacterium avium): 4 µg/mL (≈ 9.6 µM)
MIC (Escherichia coli [1]): 8 µg/mL (≈ 19.2 µM)
MIC (Bacillus subtilis [10]): 4 µg/mL (≈ 9.6 µM)
MIC (Pseudomonas aeruginosa): 8 µg/mL (≈ 19.2 µM)
MIC (Klebsiella pneumoniae): 8 µg/mL (≈ 19.2 µM)
MIC (Enterococcus faecalis [11]): 4 µg/mL (≈ 9.6 µM)
MIC (Acinetobacter baumannii): 8 µg/mL (≈ 19.2 µM)
MIC (Staphylococcus aureus [12]): 4 µg/mL (≈ 9.6 µM)
MIC [2]: 4 µg/mL (≈ 9.6 µM)

O=C(/C=C/c1ccc2c(c1)OCO2)OCc1cc(=O)c(O)co1
IC50 (Tyrosinase): 1400 nM
inhibition (INH) [13]: 47%

CC(C)(C)[Si](C)(C)OCc1cc(=O)c(O)c(C(C[N+](=O)[O-])c2ccc(Cl)cc2)o1 (centres undefined)
IC50 (DU-145): 16 µM
IC50 (A549): 18 µM
IC50 (MCF7): 18 µM
IC50 (HeLa): 11 µM
